System: 616215-338-R-J1-PDC complex spheroid viability
Experiment: Anticancer human tumor 616215-338-R-J1-PDC patient-derived colon adenocarcinoma cell line growth inhibition [RAS]
Details: for IC50: curve of first compound; for viability, T/C: stronger effect = lower value
In short: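 Tumour cells grown as complex spheroids with HUVEC endothelial cells and mesenchymal stem cells, treated with RAS pathway inhibitor combinations. Each agent spans half-log steps from near clinical Cmax, or 10 microM where Cmax is unknown.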

[1] = second compound 0.00316 µM, first compound 0.0316 µM
[2] = second compound 0.00316 µM, first compound 0.1 µM
[3] = second compound 0.00316 µM, first compound 0.316 µM
[4] = second compound 0.00316 µM, first compound 1 µM
[5] = second compound 0.01 µM, first compound 0.0316 µM
[6] = second compound 0.01 µM, first compound 0.1 µM
[7] = second compound 0.01 µM, first compound 0.316 µM
[8] = second compound 0.01 µM, first compound 1 µM
[9] = second compound 0.0316 µM, first compound 0.0316 µM
[10] = second compound 0.0316 µM, first compound 0.1 µM
[11] = second compound 0.0316 µM, first compound 0.316 µM
[12] = second compound 0.0316 µM, first compound 1 µM
[13] = second compound 0.1 µM, first compound 0.0316 µM
[14] = second compound 0.1 µM, first compound 0.1 µM
[15] = second compound 0.1 µM, first compound 0.316 µM
[16] = second compound 0.1 µM, first compound 1 µM
[17] = second compound 0.316 µM, first compound 0.0316 µM
[18] = second compound 0.316 µM, first compound 0.1 µM
[19] = second compound 0.316 µM, first compound 0.316 µM
[20] = second compound 0.316 µM, first compound 1 µM
[21] = second compound 1 µM, first compound 0.0316 µM
[22] = second compound 1 µM, first compound 0.1 µM
[23] = second compound 1 µM, first compound 0.316 µM
[24] = second compound 1 µM, first compound 1 µM
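Further: spheroids exposed to agents for seven days before viability readout.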
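Wherever viability, T/C is given: 100% = DMSO vehicle control viability.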

## C=CC(=O)Nc1cc(Nc2nccc(-c3cn(C)c4ccccc34)n2)c(OC)cc1N(C)CCN(C)C + C=CC(=O)N1CCN(c2nc(OCC3CCCN3C)nc3c(F)c(-c4nc(N)cc(C)c4C(F)(F)F)c(Cl)cc23)C(C)C1
Second compound 0.00316 µM
  IC50: > 1 µM
Second compound 0.01 µM
  IC50: > 1 µM
Second compound 0.0316 µM
  IC50: > 1 µM
Second compound 0.1 µM
  IC50: > 1 µM
Second compound 0.316 µM
  IC50: > 1 µM
Second compound 1 µM
  IC50: > 1 µM
Second compound 0.00316 µM, first compound 0.00316 µM
  viability, T/C: 95.8%
Second compound 0.00316 µM, first compound 0.01 µM
  viability, T/C: 105%
[1]
  viability, T/C: 107%
[2]
  viability, T/C: 104%
[3]
  viability, T/C: 106%
[4]
  viability, T/C: 85.6%
Second compound 0.01 µM, first compound 0.00316 µM
  viability, T/C: 93%
Second compound 0.01 µM, first compound 0.01 µM
  viability, T/C: 108%
[5]
  viability, T/C: 99%
[6]
  viability, T/C: 101%
[7]
  viability, T/C: 108%
[8]
  viability, T/C: 101%
Second compound 0.0316 µM, first compound 0.00316 µM
  viability, T/C: 101%
Second compound 0.0316 µM, first compound 0.01 µM
  viability, T/C: 110%
[9]
  viability, T/C: 107%
[10]
  viability, T/C: 99.3%
[11]
  viability, T/C: 108%
[12]
  viability, T/C: 96%
Second compound 0.1 µM, first compound 0.00316 µM
  viability, T/C: 103%
Second compound 0.1 µM, first compound 0.01 µM
  viability, T/C: 102%
[13]
  viability, T/C: 88.6%
[14]
  viability, T/C: 106%
[15]
  viability, T/C: 128%
[16]
  viability, T/C: 74.2%
Second compound 0.316 µM, first compound 0.00316 µM
  viability, T/C: 105%
Second compound 0.316 µM, first compound 0.01 µM
  viability, T/C: 98.9%
[17]
  viability, T/C: 99.4%
[18]
  viability, T/C: 106%
[19]
  viability, T/C: 109%
[20]
  viability, T/C: 74.4%
Second compound 1 µM, first compound 0.00316 µM
  viability, T/C: 96.9%
Second compound 1 µM, first compound 0.01 µM
  viability, T/C: 98.3%
[21]
  viability, T/C: 91%
[22]
  viability, T/C: 114%
[23]
  viability, T/C: 110%
[24]
  viability, T/C: 68.9%

## CC(C)NCC(C(=O)N1CCN(c2ncnc3c2C(C)CC3O)CC1)c1ccc(Cl)cc1 (centres undefined) + C=CC(=O)N1CCN(c2nc(OCC3CCCN3C)nc3c(F)c(-c4nc(N)cc(C)c4C(F)(F)F)c(Cl)cc23)C(C)C1
Second compound 0.00316 µM
  IC50: 9.08 µM
Second compound 0.01 µM
  IC50: 9.02 µM
Second compound 0.0316 µM
  IC50: > 10 µM
Second compound 0.1 µM
  IC50: 10 µM
Second compound 0.316 µM
  IC50: 9.74 µM
Second compound 1 µM
  IC50: 9.55 µM
[1]
  viability, T/C: 97.1%
[2]
  viability, T/C: 110%
[3]
  viability, T/C: 106%
[4]
  viability, T/C: 112%
Second compound 0.00316 µM, first compound 3.16 µM
  viability, T/C: 95%
Second compound 0.00316 µM, first compound 10 µM
  viability, T/C: 45.9%
[5]
  viability, T/C: 105%
[6]
  viability, T/C: 98.1%
[7]
  viability, T/C: 102%
[8]
  viability, T/C: 116%
Second compound 0.01 µM, first compound 3.16 µM
  viability, T/C: 95.1%
Second compound 0.01 µM, first compound 10 µM
  viability, T/C: 45.5%
[9]
  viability, T/C: 110%
[10]
  viability, T/C: 114%
[11]
  viability, T/C: 105%
[12]
  viability, T/C: 115%
Second compound 0.0316 µM, first compound 3.16 µM
  viability, T/C: 99.9%
Second compound 0.0316 µM, first compound 10 µM
  viability, T/C: 54%
[13]
  viability, T/C: 111%
[14]
  viability, T/C: 106%
[15]
  viability, T/C: 108%
[16]
  viability, T/C: 107%
Second compound 0.1 µM, first compound 3.16 µM
  viability, T/C: 98.2%
Second compound 0.1 µM, first compound 10 µM
  viability, T/C: 50%
[17]
  viability, T/C: 103%
[18]
  viability, T/C: 106%
[19]
  viability, T/C: 104%
[20]
  viability, T/C: 108%
Second compound 0.316 µM, first compound 3.16 µM
  viability, T/C: 93.4%
Second compound 0.316 µM, first compound 10 µM
  viability, T/C: 48.5%
[21]
  viability, T/C: 104%
[22]
  viability, T/C: 94.9%
[23]
  viability, T/C: 103%
[24]
  viability, T/C: 117%
Second compound 1 µM, first compound 3.16 µM
  viability, T/C: 104%
Second compound 1 µM, first compound 10 µM
  viability, T/C: 47.7%
